In patent US20240270776A1, “PALLADIUM VINYL AND BUTADIENYL COMPOUNDS AS CHEMOTHERAPEUTIC AGENTS” (UNIVERSITÀ CA' FOSCARI VENEZIA, priority 2021, published 2024):

Legend:
Format in all cases: cell-based
[1] = test system: MDA-MB231 (triple-negative breast cancer); assay: IC50 against tumor cell line MDA-MB231, CellTiter-Glo cell viability; conditions: MDA-MB231 cells, 96 hours, mean ± standard deviation of triplicate
Experimental: (§1) Example 11: evaluation of the therapeutic efficacy of the compounds of the invention.
(§2) Tests were carried out to determine the inhibitory concentration (IC50) of the compounds of the invention against tumor cell lines and on a control cell line; for comparison, the same tests were carried out with the cisplatin compound.
(§3) The cell lines tested were: A2780 and A2780cis, (ovarian cancer), MDA-MB231 (triple-negative breast cancer) and DLD1 (colon cancer) and MRC-5 (control; lung fibroblasts).
(§4) The stock solutions were obtained in dimethyl sulfoxide for compounds I-X and in H^20 for cisplatin.
(§5) The cells were kept, in accordance with the protocols indicated by the suppliers, at 37° C. in an atmosphere containing 5% carbon dioxide. About 500 cells were plated on 96 different wells and kept under such conditions for 96 hours.
(§6) Cell viability was determined, after treatment of the cells with a 1:1 solution of CellTiter-Glo® (registered trademark of Promega Corp., Madison, Wisconsin, USA) and DPBS, with the Tecan Infinite® M1000 instrument. IC50 values were calculated from dose response curves. The means and standard deviations were obtained from tripled measurements.

[2] = test system: A2780 (ovarian cancer); assay: IC50 against tumor cell line A2780, CellTiter-Glo cell viability; conditions: A2780 cells, 96 hours, mean ± standard deviation of triplicate
Experimental: as §1, §2, §3, §4, §5, §6

[3] = test system: A2780cis (ovarian cancer); assay: IC50 against tumor cell line A2780cis, CellTiter-Glo cell viability
Experimental: as §1, §2, §3, §4, §5, §6

[4] = test system: MRC-5 (control; lung fibroblasts); assay: IC50 on control cell line MRC-5, CellTiter-Glo cell viability; conditions: MRC-5 normal cells
Experimental: as §1, §2, §3, §4, §5, §6

[5] = test system: DLD1 (colon cancer); assay: IC50 against tumor cell line DLD1, CellTiter-Glo cell viability; conditions: DLD1 cells, 96 hours, mean ± standard deviation of triplicate
Experimental: as §1, §2, §3, §4, §5, §6

## N.N.[Cl][Pt][Cl] [CISPLATIN, cis-diaminodichloroplatin (II)]
[1]
  IC50: 37 ± 9 µM
[2]
  IC50: 0.4 ± 0.1 µM
[3]; A2780cis cells, 96 hours, mean ± standard deviation of triplicate, read-out: IC50 (μM) A2780 cis
  IC50: 27 ± 5 µM
[4]; 96 hours, mean ± standard deviation of triplicate
  IC50: 8 ± 1 µM
[5]
  IC50: 0.63 ± 0.08 µM

## COC(=O)/C(C)=C(C(=O)OC)/C(C(=O)OC)=[C](/C(=O)OC)[Pd]1([Cl])[CH]2N(Cc3ccccc3)C=CN2CN2C=CN(Cc3ccccc3)[CH]21 (stereo not shown) [Compound VII]
[3]; A2780 vs A2780cis
  loss of activity between the two lines (A2780 to A2780cis): ca. one order of magnitude
[4]
  activity against normal cells (MRC-5), in words: substantially inactive
